Reference: US10196393B2, “JAK inhibitors containing a 4-membered heterocyclic amide” (THERAVANCE BIOPHARMA R&D IP, LLC, priority 2017, dated 2019)

How the values were obtained:
[1] = test system: IL-13 induced pSTAT6 induction in lung tissue; test: Murine model of IL-13 induced pSTAT6 induction in lung tissue; format: in vivo; details: mouse lung, 1 mg/mL 50 μL oral aspiration, IL-13 challenge 4 h after dose, lungs at 5 hours
Text: Assay 4: Murine (Mouse) Model of IL-13 Induced pSTAT6 Induction in Lung Tissue
Il-13 is an important cytokine underlying the pathophysiology of asthma (Kudlacz et al. Eur. J. Pharmacol, 2008, 582,154-161). IL-13 binds to cell surface receptors activating members of the Janus family of kinases (JAK) which then phosphorylate STAT6 and subsequently activates further transcription pathways. In the described model, a dose of IL-13 was delivered locally into the lungs of mice to induce the phosphorylation of STAT6 (pSTAT6) which is then measured as the endpoint.
Adult balb/c mice from Harlan were used in the assay. On the day of study, animals were lightly anesthetized with isoflurane and administered either vehicle or test compound (1 mg/mL, 50 μL total volume over several breaths) via oral aspiration. Animals were placed in lateral recumbency post dose and monitored for full recovery from anesthesia before being returned to their home cage. Four hours later, animals were once again briefly anesthetized and challenged with either vehicle or IL-13 (0.03 μg total dose delivered, 50 μL total volume) via oral aspiration before being monitored for recovery from anesthesia and returned to their home cage. One hour after vehicle or IL-13 administration, lungs were collected for both pSTAT6 detection using an anti-pSTAT6 ELISA (rabbit mAb capture/coating antibody; mouse mAb detection/report antibody: anti-pSTAT6-pY641; secondary antibody: anti-mouse IgG-HRP) and analyzed for total drug concentration as described above in Assay 3.
Selected compounds of the invention were tested in the assay. Activity in the model is evidenced by a decrease in the level of pSTAT6 present in the lungs of treated animals at 5 hours compared to the vehicle treated, IL-13 challenged control animals. The difference between the control animals which were vehicle-treated, IL-13 challenged and the control animals which were vehicle-treated, vehicle challenged dictated the 0% and 100% inhibitory effect, respectively, in any given experiment.

[2] = test system: IL-6 stimulated STAT3 phosphorylation in CD3+ T cells; test: Cellular JAK potency assay: inhibition of IL-6 stimulated pSTAT3 in CD3+ T cells; format: cell-based; details: T-cell; CD3+ T cells in human PBMCs; read-out: pIC50, inhibition of IL-6 stimulated pSTAT3 (converted)
Text: Assay 11: Cellular JAK Potency Assay: Inhibition of IL-6 Stimulated pSTAT3 in CD3+ T Cells
A protocol analogous to that of Assay 10 was used to determine the potency of the test compound for inhibition of interleuken-6 (IL-6) stimulated STAT3 phosphorylation. An Alexa Fluor 647 conjugated anti-pSTAT3 antibody (pY705, Clone 4/P, BD Biosciences) was used to detect STAT3 phosphorylation.

[3] = test system: Alternaria alternata-induced eosinophilic inflammation of the lung (BALF eosinophils); test: Murine model of Alternaria alternata-induced eosinophilic inflammation of the lung; format: in vivo; details: mouse, oropharyngeal aspiration 0.03-1.0 mg/mL, BALF 48 h after challenge; maximum statistically significant inhibition
Text: Assay 5: Murine Model of Alternaria alternata-Induced Eosinophilic Inflammation of the Lung
Airway eosinophilia is a hallmark of human asthma. Alternaria alternata is a fungal aeroallergen that can exacerbate asthma in humans and induces eosinophilic inflammation in the lungs of mice (Havaux et al. Clin Exp Immunol. 2005 February; 139(2):179-88).
Seven- to nine-week old male C57 mice from Taconic were used in the study. On the day of study, animals were lightly anesthetized with isoflurane and administered either vehicle or test compound (0.03-1.0 mg/mL, 50 μL total volume over several breaths) via oropharyngeal aspiration. Animals were placed in lateral recumbency post dose and monitored for full recovery from anesthesia before being returned to their home cage. One hour later, animals were once again briefly anesthetized and challenged with either vehicle or alternaria extract (200 ug total extract delivered, 50 μL total volume) via oropharyngeal aspiration before being monitored for recovery from anesthesia and returned to their home cage. Forty-eight hours after alternaria administration, bronchoalveolar lavage fluid (BALF) was collected and eosinophils were counted in the BALF using the Advia 120 Hematology System (Siemens). […]

[4] = biological target: Tyk2 (Homo sapiens (Human), UniProt P29597); test: Biochemical JAK kinase assay (LanthaScreen), Tyk2; details: converted from pIC50 with Cheng-Prusoff equation
Chain of Tyk2 (P29597 whole entry): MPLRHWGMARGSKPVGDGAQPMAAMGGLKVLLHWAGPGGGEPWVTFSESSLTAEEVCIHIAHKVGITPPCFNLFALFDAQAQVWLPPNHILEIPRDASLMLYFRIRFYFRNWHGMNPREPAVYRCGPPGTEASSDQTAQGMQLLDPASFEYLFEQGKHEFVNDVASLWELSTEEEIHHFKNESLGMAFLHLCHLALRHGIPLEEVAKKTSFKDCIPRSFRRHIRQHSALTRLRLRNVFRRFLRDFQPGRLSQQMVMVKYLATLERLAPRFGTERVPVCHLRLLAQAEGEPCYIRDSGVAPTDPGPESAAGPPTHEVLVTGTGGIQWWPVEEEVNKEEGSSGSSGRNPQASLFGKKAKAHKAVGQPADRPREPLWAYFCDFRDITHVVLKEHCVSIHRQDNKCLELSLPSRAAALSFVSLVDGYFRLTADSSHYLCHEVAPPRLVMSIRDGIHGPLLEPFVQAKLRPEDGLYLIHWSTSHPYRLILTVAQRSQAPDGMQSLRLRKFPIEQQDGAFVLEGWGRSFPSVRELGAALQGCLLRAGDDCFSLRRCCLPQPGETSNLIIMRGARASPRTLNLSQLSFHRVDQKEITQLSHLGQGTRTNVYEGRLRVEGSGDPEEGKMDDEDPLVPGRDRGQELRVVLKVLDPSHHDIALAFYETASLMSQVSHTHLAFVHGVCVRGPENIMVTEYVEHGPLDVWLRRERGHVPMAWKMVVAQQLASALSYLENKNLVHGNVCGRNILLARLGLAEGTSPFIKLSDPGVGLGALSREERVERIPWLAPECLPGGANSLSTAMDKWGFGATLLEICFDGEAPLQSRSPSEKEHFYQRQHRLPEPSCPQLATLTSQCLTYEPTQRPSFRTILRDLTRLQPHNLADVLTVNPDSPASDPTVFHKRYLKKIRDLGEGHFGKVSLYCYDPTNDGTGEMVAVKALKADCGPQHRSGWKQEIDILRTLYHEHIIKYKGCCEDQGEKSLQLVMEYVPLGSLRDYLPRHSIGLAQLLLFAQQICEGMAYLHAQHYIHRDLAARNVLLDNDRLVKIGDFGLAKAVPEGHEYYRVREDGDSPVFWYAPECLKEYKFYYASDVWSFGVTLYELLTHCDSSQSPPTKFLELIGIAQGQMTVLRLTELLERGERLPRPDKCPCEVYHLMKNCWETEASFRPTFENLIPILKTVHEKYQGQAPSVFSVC
Method: Assay 1: Biochemical JAK Kinase Assays
A panel of four LanthaScreen JAK biochemical assays (JAK1, 2, 3 and Tyk2) were carried in a common kinase reaction buffer (50 mM HEPES, pH 7.5, 0.01% Brij-35, 10 mM MgCl2, and 1 mM EGTA). Recombinant GST-tagged JAK enzymes and a GFP-tagged STAT1 peptide substrate were obtained from Life Technologies.
Serially diluted compounds were pre-incubated with each of the four JAK enzymes and the substrate in white 384-well microplates (Corning) at ambient temperature for 1 h. ATP was subsequently added to initiate the kinase reactions in 10 μL total volume, with 1% DMSO. […] The plates were allowed to incubate at ambient temperature for 1 h before being read on the EnVision reader (Perkin Elmer).
For dose-response analysis, percent inhibition data were plotted vs. compound concentrations, and IC50 values were determined from a 4-parameter robust fit model with the Prism software (GraphPad Software). Results were expressed as pIC50 (negative logarithm of IC50) and subsequently converted to pKi (negative logarithm of dissociation constant, Ki) using the Cheng-Prusoff equation.

CCc1cc(O)c(F)cc1-c1ccc2c(-c3nc4c([nH]3)CN(C(C)C)[C@H](C(=O)N3CC(N(C)C)C3)C4)n[nH]c2c1 [Example 2, (S)-(3-(dimethylamino)azetidin-1-yl)(2-(6-(2-ethyl-5-fluoro-4-hydroxyphenyl)-1H-indazol-3-yl)-5-isopropyl-4,5,6,7-tetrahydro-3H-imidazo[4,5-c]pyridin-6-yl)methanone]
pSTAT6 inhibition Assay 4 [1]: B (B represents between 40% and 60% inhibition) | IC50 [2]: 63.1 nM | Percent Inhibition of Alternaria-induced BALF Eosinophils [3]: 74% | Ki [4]: 0.32 nM
